Columns and labels:
HIV-1 RT wild type (WT) = target: T1, HIV-1 RT wild type (WT) (Human immunodeficiency virus type 1 group M subtype B, UniProt P04585); assay: Reverse Transcriptase (RT) assay, wild type enzyme; format: biochemical
T1 construct: Heterodimeric RT was eluted using a descending gradient; made in house; host or cells: E. coli
Excerpt: (§1) Among the enzymes for which Human Immunodeficiency Virus (HIV-1) encodes is a reverse transcriptase (1), so-named because it transcribes a DNA copy from an RNA template. This activity can be quantitatively measured in a cell-free enzyme assay, which has been previously described (2), and is based upon the observation that reverse transcriptase is able to use a synthetic template poly r(C) primed with oligo d(G) to transcribe a radio-labelled, acid-precipitable DNA strand utilising ^3H-dGTP as a substrate. The assay described below utilises the wild type (WT) enzyme, which is the predominant form of the enzyme observed with patients infected with HIV-1. Utilisation of mutant RT enzymes (for example, Y181C, prepared by site-directed mutagenesis in which the tyrosine residue at codon 181 has been replaced by a cysteine residue, or the mutants K103N, V106A and Y188C) and analogous assay conditions allows compounds to be evaluated for their effectiveness at inhibiting the mutant enzymes.
(§2) The HIV-1 RT expression clone, pKRT2, was obtained from Yale University (3). An overnight culture, grown in 2×YT medium (37° C., 225 rpm) (4), supplemented with 100 μg/mL ampicillin for positive selection was used to inoculate the 2×YT medium. The culture was incubated (37° C., 225 rpm) until it reached an OD600 of 0.6-0.9. At that time, the repressor inhibitor IPTG (isopropyl P-D-thiogalactopyranoside) was added to 0.5 mM, and the mixture was incubated for an additional 2 hours.
(§3) Purification of recombinant reverse transcriptase was performed using a combination of methods previously described (5). This procedure is summarised briefly as follows: E. Coli containing RT-1 wt or RT-1 (Y181 C) were suspended in 50 mM MES, pH 6.0 containing 10% glycerol, lysed in a French press, centrifuged, and the supernates discarded. Lysate pellets were extracted with buffer A (50 mM MES, pH 6.0, 100 mM KCl, 50 mM KPi, 10% glycerol, 0.02% hexyl-β-glucoside), and re-centrifuged; nucleic acid in supernates was precipitated with 0.1% polyethylenimine. […] Bound RT was eluted with a gradient of 0 to 1.0M
(§4) (NH4)2 SO4 in buffer B. Heparin-Sepharose fractions containing RT were concentrated (Amicon YM-30 membrane), combined with equal volumes of 2.0M (NH4)2SO4 in buffer B and injected onto a 21.5×150 mm TSK Phenyl-5PW HIC HPLC column (Phenomenex). Heterodimeric RT was eluted using a descending gradient of 1.0M to 0M (NH4)2SO4 in buffer B, concentrated, and stored at 4° C.
(§5) The 2.4× concentrated stock reaction mixture was aliquoted and stored at −20° C. The mixture is stable and can be thawed for use in each assay. This enzyme assay has been adapted to a 96 well microtiter plate system, and has been previously described (6). Tris buffer (50 mM, pH 7.8), vehicle (solvent diluted to match the compound dilution), or compounds in vehicle were dispensed into 96-well microtiter plates (10 μL/well; 3 wells/compound). The HIV-1 RT enzyme was thawed, diluted in 50 mM Tris pH 7.8 containing 0.05% Chaps to give 1.5 nM enzyme and 25 μL were dispensed per well. Ten μL of 0.5M EDTA were added to the first three wells of the microtiter plate. EDTA chelates the Mg^2+ present and prevents reverse transcription. This group served as background polymerisation, which was subtracted, from all other groups. Twenty-five μl of the 2.4× reaction mixture was added to all wells and the assay was allowed to incubate at room temperature for 30 minutes. The assay was terminated by precipitating the DNA in each well with 60 μL of sodium pyrophosphate (2% w/v) in 10% trichloroacetic acid (TCA) (10% w/v). The microtiter plate was incubated for 15 minutes at 4° C. and the precipitate was harvested onto #30 glass fibre paper (Schleicher & Schuell) using a Tomtech 96-well harvester. The filters were dried, placed in plastic bags with Betaplate scintillation cocktail (Pharmacia/LKB) and counted in the Betaplate counter (Pharmacia/LKB).
(§6) The calculation for percent inhibition is as follows: [formula] […]

[1] = target: T2, HIV-1 RT double mutant K103N/Y181C (Human immunodeficiency virus type 1 group M subtype B, UniProt P04585, K690N/Y768C); assay: Reverse Transcriptase (RT) assay, double mutant enzyme; format: biochemical
T2 construct: Heterodimeric RT was eluted using a descending gradient; made in house; host or cells: E. coli (inferred; the text describes only wild type and Y181C preparations)
Excerpt: as §1, §2, §3, §4, §5, §6

[2] = system: HIV replication in T-lymphocytes, virus coding for wild type enzyme; assay: ELISA (p24) assay for activity in cell culture, wild type virus; format: cell-based; conditions: Human immunodeficiency virus 1, T-lymphocyte, read-out: EC50 WT RT
Description: (§7) ELISA Assay for Assessment of Activity in Cell Culture
(§8) Compounds of the invention were tested for their ability to inhibit HIV replication in cell culture. Viruses coding for Wild type and mutant enzymes were used. T-lymphocytes were infected with the virus, infected cells were incubated in the presence of varying amounts of compounds of the invention, and an ELISA assay for the viral protein p24 was used to quantify viral replication. Table 9 lists the results as EC50 (nM).

[3] = system: HIV replication in T-lymphocytes, virus coding for mutant enzyme K103N/Y181C; assay: ELISA (p24) assay for activity in cell culture, mutant virus; format: cell-based; conditions: Human immunodeficiency virus 1, T-lymphocyte, read-out: EC50 K103N/Y181C
Description: as §7, §8

Row | Structure (SMILES) | IC50 (HIV-1 RT wild type (WT)) | IC50 [1] | EC50 [2] | EC50 [3]
1 | CCN1c2ncc(CCOc3cccc4c3CCS(=O)(=O)N4CCCC(=O)NNCC(F)(F)F)cc2C(=O)N(C)c2cccnc21 [Compound 640] | < 100 nM | < 100 nM | < 100 nM | < 100 nM
2 | CCN1c2ncc(CCOc3cccc4c3CCS(=O)(=O)N4Cc3cccnc3)cc2C(=O)N(C)c2cccnc21 [Compound 629] | < 100 nM | < 100 nM | < 100 nM | < 100 nM
3 | CCN1c2ncc(CCOc3cccc4c3CCN(CCCC(=O)NN)S4(=O)=O)cc2C(=O)N(C)c2cccnc21 [Compound 714] | < 100 nM | < 100 nM | < 100 nM | < 100 nM
4 | CCN1c2ncc(CCOc3cccc4c3C=CS(=O)(=O)N4CCCC(=O)O)cc2C(=O)N(C)c2cccnc21 [Compound 809] | < 100 nM | 100 to 1000 nM | < 100 nM | < 100 nM
5 | CCN1c2ncc(CCOc3cccc4c3CS(=O)(=O)N4)cc2C(=O)N(C)c2cccnc21 [Compound 101] | < 100 nM | 100 to 1000 nM | – | < 100 nM
6 | CCN1c2ncc(CCOc3cccc4c3CS(=O)(=O)N4)cc2C(=O)N(C)c2ccc(F)nc21 [Compound 103] | < 100 nM | 100 to 1000 nM | < 100 nM | < 100 nM
7 | CCOC(=O)CCCN1c2cccc(OCCc3cnc4c(c3)C(=O)N(C)c3cccnc3N4CC)c2CCS1(=O)=O [Compound 628] | < 100 nM | < 100 nM | < 100 nM | < 100 nM
8 | CCN1c2ncc(CCOc3cccc4c3CS(=O)(=O)N4Cc3cc[n+]([O-])cc3)cc2C(=O)N(C)c2cccnc21 [Compound 130] | < 100 nM | < 100 nM | < 100 nM | < 100 nM
9 | CCN1c2ncc(CCOc3cccc4c3CS(=O)(=O)N4CC(C)C(=O)O)cc2C(=O)N(C)c2cccnc21 (centres unmarked) [Compound 138] | < 100 nM | < 100 nM | < 100 nM | < 100 nM
10 | CCN1c2ncc(CCOc3cccc4c3CS(=O)(=O)N4CC(=O)Nc3cc[n+]([O-])cc3)cc2C(=O)N(C)c2cccnc21 [Compound 141] | < 100 nM | < 100 nM | < 100 nM | < 100 nM
11 | CCN1c2ncc(CCOc3cccc4c3CS(=O)(=O)N4CCO)cc2C(=O)N(C)c2cccnc21 [Compound 129] | < 100 nM | < 100 nM | < 100 nM | < 100 nM
12 | CCN1c2ncc(CCOc3cccc4c3CCS(=O)(=O)N4CCCS(N)(=O)=O)cc2C(=O)N(C)c2cccnc21 [Compound 630] | < 100 nM | < 100 nM | < 100 nM | < 100 nM
13 | CCN1c2ncc(CCOc3cccc4c3CCN(CCCC(=O)O)S4(=O)=O)cc2C(=O)N(C)c2cccnc21 [Compound 713] | < 100 nM | < 100 nM | < 100 nM | < 100 nM
14 | CCN1c2ncc(CCOc3cccc4c3CS(=O)(=O)N4Cc3cc[n+]([O-])cc3)cc2C(=O)Nc2c(C)ccnc21 [Compound 136] | < 100 nM | < 100 nM | < 100 nM | < 100 nM
15 | CCN1c2ncc(CCOc3cccc4c3CCS(=O)(=O)N4CC(=O)NS(C)(=O)=O)cc2C(=O)N(C)c2cccnc21 [Compound 631] | < 100 nM | < 100 nM | 100 to 1000 nM | 100 to 1000 nM
16 | CCN1c2ncc(CCOc3cccc4c3CS(=O)(=O)N4CC(=O)O)cc2C(=O)N(C)c2cccnc21 [Compound 127] | < 100 nM | 100 to 1000 nM | < 100 nM | 100 to 1000 nM
17 | CCN1c2ncc(CCOc3cccc4c3CCS(=O)(=O)N4CC(=O)NC(C)(C)C(=O)O)cc2C(=O)N(C)c2cccnc21 [Compound 637] | < 100 nM | < 100 nM | < 100 nM | < 100 nM

Row | Structure (SMILES) | IC50 (HIV-1 RT wild type (WT)) | IC50 [1] | EC50 [2] | EC50 [3]
18 | CCN1c2ncc(CCOc3cccc4c3CCS(=O)(=O)N4CC(=O)OC)cc2C(=O)N(C)c2cccnc21 [Compound 616] | < 100 nM | < 100 nM | < 100 nM | < 100 nM
19 | CCN1c2ncc(CCOc3ccc4c(c3)C(C)(C)NS4(=O)=O)cc2C(=O)Nc2c(C)ccnc21 [Compound 311] | < 100 nM | 100 to 1000 nM | < 100 nM | < 100 nM
20 | CCN1c2ncc(CCOc3ccc4c(c3)CNS4(=O)=O)cc2C(=O)N(C)c2cccnc21 [Compound 301] | < 100 nM | 100 to 1000 nM | – | –
21 | CCN1c2ncc(CCOc3cccc4c3CS(=O)(=O)N4C)cc2C(=O)Nc2c(C)cc(C)nc21 [Compound 117] | < 100 nM | < 100 nM | < 100 nM | –
22 | CCN1c2ncc(CCOc3cccc4c3CS(=O)(=O)N4CC)cc2C(=O)N(C)c2ccc(C)nc21 [Compound 115] | < 100 nM | < 100 nM | – | –
23 | CCN1c2ncc(CCOc3cccc4c3C(C)(C)NS4(=O)=O)cc2C(=O)N(C)c2cccnc21 [Compound 224] | < 100 nM | 100 to 1000 nM | – | –
24 | CCN1c2ncc(CCOc3cccc4c3C=CS(=O)(=O)N4CC)cc2C(=O)N(C)c2cccnc21 [Compound 807] | < 100 nM | < 100 nM | – | –
25 | CCN1c2ncc(CCOc3ccc4c(c3)CNS4(=O)=O)cc2C(=O)Nc2c(C)cc(F)nc21 [Compound 310] | < 100 nM | 100 to 1000 nM | – | –
26 | CCN1c2ncc(CCOc3cccc4c3CCS(=O)(=O)N4CC(=O)N3CCCC3)cc2C(=O)N(C)c2cccnc21 [Compound 623] | < 100 nM | < 100 nM | – | –
27 | CCN1c2ncc(CCOc3ccc4c(c3)C(C)(C)NS4(=O)=O)cc2C(=O)N(C)c2cccnc21 [Compound 306] | < 100 nM | < 100 nM | – | –
28 | CCN1c2ncc(CCOc3cccc4c3CS(=O)(=O)N4C)cc2C(=O)Nc2c(C)cc(F)nc21 [Compound 112] | < 100 nM | < 100 nM | – | –
29 | CN1C(=O)c2cc(CCOc3cccc4c3CS(=O)(=O)N4C)cnc2N(C2CC2)c2ncccc21 [Compound 116] | < 100 nM | 100 to 1000 nM | – | –
30 | CCN1c2ncc(CCOc3cccc4c3CCS(=O)(=O)N4CC(=O)O)cc2C(=O)N(C)c2cccnc21 [Compound 614] | < 100 nM | < 100 nM | – | –
31 | Cc1ccnc2c1NC(=O)c1cc(CCOc3cccc4c3C(C)(C)NS4(=O)=O)cnc1N2C1CC1 [Compound 226] | < 100 nM | > 1000 nM | – | –
32 | CCN1c2ncc(CCOc3cccc4c3CCS(=O)(=O)N4Cc3csc(C)n3)cc2C(=O)N(C)c2cccnc21 [Compound 622] | < 100 nM | < 100 nM | – | –
33 | CCN1c2ncc(CCOc3cccc4c3CCS(=O)(=O)N4C(=O)N3CCOCC3)cc2C(=O)N(C)c2cccnc21 [Compound 618] | < 100 nM | < 100 nM | – | –

— patent US6716836B2, “Non-nucleoside reverse transcriptase inhibitors” (Boehringer Ingelheim (Canada) Ltd., priority 2001, dated 2004)
